Like-named read-outs stand apart in the source and are kept apart here.
Tests used:
[1] = test system: previously treated patients with SCLC; conditions: phase II, ref Stephenson et al, 2014; cited from earlier work
advanced malignancies = conditions: phase I, cited from earlier work
human cancer cell lines = conditions: large panel of human cancer cell lines; ref Siemeister et al, 2012; cited from earlier work
[2] = test system: proliferating cell nuclear antigen (PCNA); experiment: PCNA RNA expression in whole blood; assay type: in vivo, human; conditions: for Difference of mean ΔCT values from baseline (ΔΔCT), PCNA: 6 h post dose, whole blood
xenograft mouse models = conditions: ref Siemeister et al, 2012; cited from earlier work
[3] = test system: cell-cycle CDKs 1, 2, 4, and 6 and transcriptional CDKs 7 and 9; conditions: cited from earlier work
[4] = test system: patients with advanced malignancies; experiment: Tumour response; assay type: in vivo, human
[5] = test system: patients with advanced malignancies; experiment: Tumour response; assay type: in vivo, human; conditions: 10 patients
[6] = 104 patients with solid tumours
[7] = seven patients, lymphoid malignancy dose-escalation cohorts

Molecule: CCc1cnn2c(NCc3ccc[n+]([O-])c3)cc(N3CCCC[C@H]3CCO)nc12 [dinaciclib]
- Objective responses [1]: no objective responses
- Disease control rate (DCR) (advanced malignancies; ref Nemunaitis et al, 2013): 20.8%

Molecule: CC(=O)c1c(C)c2cnc(Nc3ccc(N4CCNCC4)cn3)nc2n(C2CCCC2)c1=O [palbociclib]
- Disease control rate (DCR) (advanced malignancies; ref Flaherty et al, 2012): 27%

Molecule: roniciclib
- Anti-proliferative activity (human cancer cell lines): broad-spectrum anti-proliferative activity
- PCNA expression in peripheral whole blood (fold-change from baseline) ([2]; 6 h post dose on cycle 1, day 1, ovarian cancer and SCLC patients): significantly inhibited expression of PCNA
- Difference of mean ΔCT values from baseline (ΔΔCT), PCNA ([2]; Ovarian cancer cohort, Cycle 1, day 1): 1.720
- Difference of mean ΔCT values from baseline (ΔΔCT), PCNA ([2]; Ovarian cancer cohort, Cycle 1, day 10): 0.521
- Difference of mean ΔCT values from baseline (ΔΔCT), PCNA ([2]; SCLC cohort, Cycle 1, day 1): 1.006
- Difference of mean ΔCT values from baseline (ΔΔCT), PCNA ([2]; SCLC cohort, Cycle 1, day 10): 0.224
- Tumour growth inhibition (xenograft mouse models): strongly inhibited tumour growth in a dose-dependent manner
- Activity against CDKs [3]: low nanomolar activity
- Disease control rate (DCR) ([4]; 5 mg BID, solid tumours bearing a CDK-related tumour mutation (n=6)): 33.3%
- Complete response [4, 6]: none
- Disease control rate (DCR) [4, 6]: 32.7%
- Partial response [4, 6]: 1.0%
- Radiological progressive disease [4, 6]: 38.5%
- Response rate [4, 6]: 1.0%
- Stable disease [4, 6]: 31.7%
- Disease control rate (DCR) ([4]; lymphoid malignancy dose-escalation cohorts): 42.9%
- Complete or partial response [4, 7]: none
- Stable disease, patients [4, 7]: three
- Complete or partial response [5]: No patients
- Stable disease, patients [5]: five
